Source: patent publication EP0340778A2, “Prodrugs of 2',3'- Didehydro-2',3'-Dideoxynucleosides” (Bristol-Myers Squibb Company, priority 1988, dated 1989)
Where two headings read alike, the source gives them in different places.

Tested on: HIV (LAV strain)
Experiment: anti-HIV/LAV activity in cultures of CEM-F cells, p-24 gag protein enzyme capture assay (ELISA)
Assay type: cell-based
Conditions: Human immunodeficiency virus 1, CCRF-CEM, 192 h, read-out: ID₅₀
Method: The anti-HIV/LAV activity of several compounds representative of this invention and of d4T for comparison was measured in cultures of CEM-F cells. The CEM cells were infected with approximately 30 TCID₅₀ (50% tissue culture infectious dose) of HIV (LAV strain). The cells were then incubated for 45 min 37°C. The test compounds, in culture medium, were added at various concentrations to the infected cells and then incubated for a further 8 days. After 8 days the antiviral activity was evaluated in the culture media supernatant for p-24 gag protein by an enzyme capture assay (ELISA). The antiviral activity was expressed as the dose which inhibits 50% of the virus expression (ID₅₀ in µM) as detected by the assay described.

[1] = dose which inhibits 50% of the virus expression, CEM cells infected with approximately 30 TCID₅₀ of HIV (LAV strain), 8 days incubation with compound, p-24 gag protein in culture media supernatant

IC50 [nM] | IC50 [1] [nM] | Compound
400 | – | COCC(=O)OCC1C=CC(n2cc(C)c(=O)[nH]c2=O)O1 (stereo not drawn) [Example 3, 5′-O-Methoxyacetyl-2′,3′-didehydro-2′,3′-dideoxythymidine]
4800 | – | Cc1cn([C@H]2C=C[C@@H](COC(=O)C(C)(C)C)O2)c(=O)[nH]c1=O [Example 4, 5′-O-Pivaloyl-2′,3′-didehydro-2′,3′-dideoxythymidine]
3200 | – | COC(=O)OC[C@@H]1C=C[C@H](n2cc(C)c(=O)[nH]c2=O)O1 [Example 5, 5′-O-Methoxycarbonyl-2′,3′-didehydro-2′,3′-dideoxythymidine]
500 | – | Cc1cn(C2C=CC(COC(=O)c3ccccc3)O2)c(=O)[nH]c1=S (stereo not drawn) [Example 8, 5′-O-Benzoyl-2′,3′-dihydro-2′,3′-dideoxy-4-thio-thymidine]
– | 500 | O=C(OC[C@@H]1C=C[C@H](n2ccc(=S)[nH]c2=O)O1)c1ccccc1 [Example 11, 5′-O-Benzoyl-2′,3′-didehydro-2′,3′-dideoxy-4-thio-uridine]
– | 100 | Nc1ccn([C@H]2C=C[C@@H](COC(=O)c3ccccc3)O2)c(=O)n1 [Example 12, 5′-O-Benzoyl-2′,3′-didehydro-2′,3′dideoxycytidine]
200 | – | Cc1cn([C@H]2C=C[C@@H](CO)O2)c(=O)[nH]c1=O [d4T, 2′,3′-didehydro-2′,3′-dideoxythymidine, reference compound]

Compound | IC50 [nM] | IC50 [1] [nM]
CC(=O)OC[C@@H]1C=C[C@H](n2cc(C)c(=O)[nH]c2=O)O1 [Example 1, 5′-O-Acetyl-2′,3′-didehydro-2′,3′-dideoxythymidine] | 3200 | –
Cc1cn([C@H]2C=C[C@@H](COC(=O)OC3CCCCC3)O2)c(=O)[nH]c1=O [Example 6, 5′-O-Cyclohexyloxycarbonyl-2′,3′-didehydro-2′,3′-dideoxy-thymidine] | 600 | –
